This is an account of results in patent publication US7053077B1, “Use of biogenic estrogen sulfamates for hormone replacement therapy” (Schering AG, priority 1998, dated 2006).

For data set [1] the following is noted: women; cited from earlier work.
For data set [2], the system named is bone. Conditions: postmenopausal women, very high oral dosages; cited from earlier work.
For data set [3], the system named is bone. The conditions noted are these: uniform active ingredient levels maintained in the blood; cited from earlier work.
The next data set deals with liver. Conditions: relative to anti-gonadotropic properties; cited from earlier work.
For another data set, the system named is ovariectomized rats. Nature of the data set: Oral estrogenic action in ovariectomized rats. The class given is in vivo. As to the method:
(§1) These release-processes were ended after 24 hours.

The nature of data set [4]: Blood levels of estradiol and estrone in ovariectomized rats after oral treatment. The class given is in vivo. How it is done:
as §1

The nature of data set [5]: Plasma estrogen levels after one-time oral administration in postmenopausal women. The data set is classed as in vivo. The source says:
A “pool” of estrone sulfate is produced in the blood by EV. From the latter is released estrone by hydrolysis, a small proportion of which is in turn metabolized into estradiol. […] Estrone sulfate is in this case only the main metabolite of the estrogens that are produced from the sulfamate.

How the values of data set [6] were obtained: In the examples below, the determination of the plasma levels of the estrogens with validated methods that are known and acknowledged in the art was performed.
The test system of the next data set is endometrium. As to the kind of experiment: Growth effect on the endometrium after daily low-dose treatment. The class given is in vivo, postmenopausal women. The conditions noted are these: daily 0.1 mg, at the end of treatment.

Broadly, the half-life is the time needed for the level to fall by half in the phase considered. For `C[C@]12CC[C@@H]3c4ccc(O)cc4CC[C@H]3[C@@H]1C[C@@H](O)[C@@H]2O` [estriol], the half-life in data set [1] was 1.5 to 5.3 h. Besides, in the data set on bone [2], the osteoprotective effect result is “not osteoporectively effective”. Besides, the “action in the bone after ovariectomy” value in the data set on bone [3] is “protective action in the bone”.

Turning to `C#C[C@]1(O)CC[C@H]2[C@@H]3CCc4cc(O)ccc4[C@H]3CC[C@@]21C` [EE, ethinylestradiol], the “estrogenic activity in the liver compared with orally administered natural estrogens” value in the data set with liver is 4–18 times.

As to estradiol sulfamate, the oral estrogenic action entry in the data set on ovariectomized rats (oral treatment) is “strong oral estrogenic action”. In the data set with ovariectomized rats (very high dosages), the “extension of the estrogen actions” value is listed as “did not result in an extension of the estrogen actions”. Further, in data set [4], the “blood levels of estradiol and estrone in comparison to estradiol in an equimolar dose” value is “higher and prolonged blood levels of estradiol and estrone”; the “end of release processes (estradiol, estrone)” value was at most 24 h. Moreover, in data set [5] (one-time oral 2 mg, 24 hours, postmenopausal women), the “estrone levels 24 hours after administration” value was “higher after estradiol sulfamate than after EV”. For the same compound, the “estrone sulfate levels 48 hours after administration” value in data set [5] (one-time oral 2 mg, 48 hours, postmenopausal women) is given as “higher after estradiol sulfamate than after EV”. For the same compound, in data set [5] (one-time oral 2 mg, one week, postmenopausal women), the “estradiol blood levels one week after treatment” value is reported as “clearly exceed the starting values”. Besides, in [5] (one-time oral 2 mg, postmenopausal women (FIG. 1)), the “increase of estrone sulfate levels in plasma” value is “increase”. The “increase of estrone levels in plasma” value in data set [5] (one-time oral 2 mg, postmenopausal women (FIG. 2)) was “persists for a long time”. Besides, the “level of estrogen sulfate in comparison to EV” value in [5] (oral use (FIG. 4)) is recorded as “very low in comparison to EV”. Moreover, in [5] (oral use, compared with EV (FIG. 4)), the “release (surface under the curve) of estrone” value is recorded as “altogether higher release”. Also, in data set [5] (three postmenopausal women, one-time 2 mg, over 600 hours (FIG. 5)), the “average estrone sulfate levels” value was “clear increase compared to the starting values”. For the same compound, the “estrone sulfate increase compared with transdermal therapy” value in data set [5] (women, oral) is reported as “behave comparably”. Besides, the “induced estrone sulfate levels relative to estradiol valerate” value in [5] (women, oral, at comparable estrone and estradiol levels in the blood) was “about 10 times lower”. In addition, in data set [6] (daily 0.1 mg, after last of 14 administrations), the “persistence of estrone sulfate increase in plasma after the last administration” value was “had not yet disappeared even after six days”. Moreover, in [6] (in vivo), the “estrone levels in the plasma” value is listed as “Relevant elevated estrone levels”, the “estrone sulfate level at the end of the treatment” value was “clear increases” and the “estrone sulfate level in the first 24 hours after beginning of treatment” value is listed as “no clear increases”. The “growth effect on the endometrium relative to the starting value” with endometrium is on record as “considerable growth effect on the endometrium”.
